Data: patent publication US12377104B1, “Methods for treating a fatty liver disease” (Madrigal Pharmaceuticals, Inc., priority 2024, dated 2025)
Where two headings read alike, the source gives them in different places.

Experiment: Resmetirom exposure parameters by dose, quartile and body weight
Type: in vivo, human
Details: for AUC / Cmax: human, in vivo, oral
Protocol: Various body weight cutoffs for dosing were evaluated.

CC(C)c1cc(Oc2c(Cl)cc(-n3nc(C#N)c(=O)[nH]c3=O)cc2Cl)n[nH]c1=O [Resmetirom, 2-(3,5-dichloro-4-((5-isopropyl-6-oxo-1,6-dihydropyridazin-3-yl)oxy)phenyl)-3,5-dioxo-2,3,4,5-tetrahydro-1,2,4-triazine-6-carbonitrile]
Cmin,ss Geometric Mean (80 mg, 80-<90 kg): 0.0207 µg/mL
Cmin,ss Mean (80 mg, 80-<90 kg): 0.0559 µg/mL
Cmin,ss Median (80 mg, 80-<90 kg): 0.0184 µg/mL
t1/2α Geometric Mean (80 mg, 80-<90 kg): 1.21 h
t1/2α Mean (80 mg, 80-<90 kg): 1.34 h
t1/2α Median (80 mg, 80-<90 kg): 1.24 h
t1/2β Geometric Mean (80 mg, 80-<90 kg): 5.15 h
t1/2β Mean (80 mg, 80-<90 kg): 6.04 h
t1/2β Median (80 mg, 80-<90 kg): 4.41 h
Cmin,ss Geometric Mean (80 mg, 90-<100 kg): 0.0142 µg/mL
Cmin,ss Mean (80 mg, 90-<100 kg): 0.052 µg/mL
Cmin,ss Median (80 mg, 90-<100 kg): 0.012 µg/mL
t1/2α Geometric Mean (80 mg, 90-<100 kg): 1.10 h
t1/2α Mean (80 mg, 90-<100 kg): 1.21 h
t1/2α Median (80 mg, 90-<100 kg): 1.02 h
t1/2β Geometric Mean (80 mg, 90-<100 kg): 4.81 h
t1/2β Mean (80 mg, 90-<100 kg): 5.50 h
t1/2β Median (80 mg, 90-<100 kg): 4.29 h
Cmin,ss Geometric Mean (80 mg, 100-<110 kg): 0.0132 µg/mL
Cmin,ss Mean (80 mg, 100-<110 kg): 0.0373 µg/mL
Cmin,ss Median (80 mg, 100-<110 kg): 0.0141 µg/mL
t1/2α Geometric Mean (80 mg, 100-<110 kg): 1.12 h
t1/2α Mean (80 mg, 100-<110 kg): 1.26 h
t1/2α Median (80 mg, 100-<110 kg): 1.12 h
t1/2β Geometric Mean (80 mg, 100-<110 kg): 4.99 h
t1/2β Mean (80 mg, 100-<110 kg): 5.86 h
t1/2β Median (80 mg, 100-<110 kg): 4.50 h
Cmin,ss Geometric Mean (80 mg, <80 kg): 0.0267 µg/mL
Cmin,ss Mean (80 mg, <80 kg): 0.0728 µg/mL
Cmin,ss Median (80 mg, <80 kg): 0.0255 µg/mL
t1/2α Geometric Mean (80 mg, <80 kg): 1.13 h
t1/2α Mean (80 mg, <80 kg): 1.27 h
t1/2α Median (80 mg, <80 kg): 1.15 h
t1/2β Geometric Mean (80 mg, <80 kg): 5.03 h
t1/2β Mean (80 mg, <80 kg): 5.44 h
t1/2β Median (80 mg, <80 kg): 4.53 h
Percentage of Cave,ss in quartile (80 mg; Q1: [20-155) ng/mL): 31%
Percentage of Cave,ss in quartile (80 mg; Q2: [155-219) ng/mL): 31%
Percentage of Cave,ss in quartile (80 mg; Q3: [219-321) ng/mL): 22%
Percentage of Cave,ss in quartile (80 mg, Q4: [321-1326] ng/mL): 17%
Cmin,ss Geometric Mean (80 mg, ≥110 kg): 0.0115 µg/mL
Cmin,ss Mean (80 mg, ≥110 kg): 0.026 µg/mL
Cmin,ss Median (80 mg, ≥110 kg): 0.00977 µg/mL
t1/2α Geometric Mean (80 mg, ≥110 kg): 1.16 h
t1/2α Mean (80 mg, ≥110 kg): 1.30 h
t1/2α Median (80 mg, ≥110 kg): 1.11 h
t1/2β Geometric Mean (80 mg, ≥110 kg): 4.94 h
t1/2β Mean (80 mg, ≥110 kg): 5.30 h
t1/2β Median (80 mg, ≥110 kg): 4.45 h
Cmin,ss Geometric Mean (100 mg, 80-<90 kg): 0.032 µg/mL
Cmin,ss Mean (100 mg, 80-<90 kg): 0.1 µg/mL
Cmin,ss Median (100 mg, 80-<90 kg): 0.0222 µg/mL
t1/2α Geometric Mean (100 mg, 80-<90 kg): 1.16 h
t1/2α Mean (100 mg, 80-<90 kg): 1.30 h
t1/2α Median (100 mg, 80-<90 kg): 1.08 h
t1/2β Geometric Mean (100 mg, 80-<90 kg): 5.58 h
t1/2β Mean (100 mg, 80-<90 kg): 7.13 h
t1/2β Median (100 mg, 80-<90 kg): 4.43 h
Cmin,ss Geometric Mean (100 mg, 90-<100 kg): 0.0417 µg/mL
Cmin,ss Mean (100 mg, 90-<100 kg): 0.113 µg/mL
Cmin,ss Median (100 mg, 90-<100 kg): 0.051 µg/mL
t1/2α Geometric Mean (100 mg, 90-<100 kg): 1.39 h
t1/2α Mean (100 mg, 90-<100 kg): 1.54 h
t1/2α Median (100 mg, 90-<100 kg): 1.37 h
t1/2β Geometric Mean (100 mg, 90-<100 kg): 6.21 h
t1/2β Mean (100 mg, 90-<100 kg): 8.49 h
t1/2β Median (100 mg, 90-<100 kg): 5.29 h
Cmin,ss Geometric Mean (100 mg, 100-<110 kg): 0.0265 µg/mL
Cmin,ss Mean (100 mg, 100-<110 kg): 0.0654 µg/mL
Cmin,ss Median (100 mg, 100-<110 kg): 0.0221 µg/mL
t1/2α Geometric Mean (100 mg, 100-<110 kg): 1.14 h
t1/2α Mean (100 mg, 100-<110 kg): 1.30 h
t1/2α Median (100 mg, 100-<110 kg): 1.34 h
t1/2β Geometric Mean (100 mg, 100-<110 kg): 5.55 h
t1/2β Mean (100 mg, 100-<110 kg): 7.08 h
t1/2β Median (100 mg, 100-<110 kg): 4.65 h
Cmin,ss Geometric Mean (100 mg, <80 kg): 0.0314 µg/mL
Cmin,ss Mean (100 mg, <80 kg): 0.119 µg/mL
Cmin,ss Median (100 mg, <80 kg): 0.0297 µg/mL
t1/2α Geometric Mean (100 mg, <80 kg): 1.26 h
t1/2α Mean (100 mg, <80 kg): 1.47 h
t1/2α Median (100 mg, <80 kg): 1.44 h
t1/2β Geometric Mean (100 mg, <80 kg): 5.36 h
t1/2β Mean (100 mg, <80 kg): 6.85 h
t1/2β Median (100 mg, <80 kg): 4.41 h
Percentage of Cave,ss in quartile (100 mg; Q1: [20-155) ng/mL): 19%
Percentage of Cave,ss in quartile (100 mg; Q2: [155-219) ng/mL): 19%
Percentage of Cave,ss in quartile (100 mg; Q3: [219-321) ng/mL): 28%
Percentage of Cave,ss in quartile (100 mg, Q4: [321-1326] ng/mL): 34%
Cmin,ss Geometric Mean (100 mg, ≥110 kg): 0.0162 µg/mL
Cmin,ss Mean (100 mg, ≥110 kg): 0.0434 µg/mL
Cmin,ss Median (100 mg, ≥110 kg): 0.0128 µg/mL
t1/2α Geometric Mean (100 mg, ≥110 kg): 1.24 h
t1/2α Mean (100 mg, ≥110 kg): 1.38 h
t1/2α Median (100 mg, ≥110 kg): 1.30 h
t1/2β Geometric Mean (100 mg, ≥110 kg): 5.32 h
t1/2β Mean (100 mg, ≥110 kg): 6.33 h
t1/2β Median (100 mg, ≥110 kg): 4.50 h
AUC (80 mg, 80-<90 kg, read-out: AUCtau,ss Geometric Mean): 6.01 µg·h/mL
AUC (80 mg, 80-<90 kg, read-out: AUCtau,ss Mean): 6.66 µg·h/mL
AUC (80 mg, 80-<90 kg, read-out: AUCtau,ss Median): 5.75 µg·h/mL
Cmax (80 mg, 80-<90 kg, read-out: Cmax,ss Geometric Mean): 0.816 µg/mL
Cmax (80 mg, 80-<90 kg, read-out: Cmax,ss Mean): 0.869 µg/mL
Cmax (80 mg, 80-<90 kg, read-out: Cmax,ss Median): 0.87 µg/mL
AUC (80 mg, 90-<100 kg, read-out: AUCtau,ss Geometric Mean): 5.06 µg·h/mL
AUC (80 mg, 90-<100 kg, read-out: AUCtau,ss Mean): 5.79 µg·h/mL
AUC (80 mg, 90-<100 kg, read-out: AUCtau,ss Median): 5.03 µg·h/mL
Cmax (80 mg, 90-<100 kg, read-out: Cmax,ss Geometric Mean): 0.745 µg/mL
Cmax (80 mg, 90-<100 kg, read-out: Cmax,ss Mean): 0.789 µg/mL
Cmax (80 mg, 90-<100 kg, read-out: Cmax,ss Median): 0.795 µg/mL
AUC (80 mg, 100-<110 kg, read-out: AUCtau,ss Geometric Mean): 4.37 µg·h/mL
AUC (80 mg, 100-<110 kg, read-out: AUCtau,ss Mean): 4.74 µg·h/mL
AUC (80 mg, 100-<110 kg, read-out: AUCtau,ss Median): 4.4 µg·h/mL
Cmax (80 mg, 100-<110 kg, read-out: Cmax,ss Geometric Mean): 0.624 µg/mL
Cmax (80 mg, 100-<110 kg, read-out: Cmax,ss Mean): 0.654 µg/mL
Cmax (80 mg, 100-<110 kg, read-out: Cmax,ss Median): 0.644 µg/mL
AUC (80 mg, <80 kg, read-out: AUCtau,ss Geometric Mean): 8.08 µg·h/mL
AUC (80 mg, <80 kg, read-out: AUCtau,ss Mean): 9.23 µg·h/mL
AUC (80 mg, <80 kg, read-out: AUCtau,ss Median): 8.18 µg·h/mL
Cmax (80 mg, <80 kg, read-out: Cmax,ss Geometric Mean): 1.12 µg/mL
Cmax (80 mg, <80 kg, read-out: Cmax,ss Mean): 1.21 µg/mL
Cmax (80 mg, <80 kg, read-out: Cmax,ss Median): 1.14 µg/mL
AUC (80 mg, ≥110 kg, read-out: AUCtau,ss Geometric Mean): 3.47 µg·h/mL
AUC (80 mg, ≥110 kg, read-out: AUCtau,ss Mean): 3.75 µg·h/mL
AUC (80 mg, ≥110 kg, read-out: AUCtau,ss Median): 3.55 µg·h/mL
Cmax (80 mg, ≥110 kg, read-out: Cmax,ss Geometric Mean): 0.489 µg/mL
Cmax (80 mg, ≥110 kg, read-out: Cmax,ss Mean): 0.52 µg/mL
Cmax (80 mg, ≥110 kg, read-out: Cmax,ss Median): 0.504 µg/mL
AUC (100 mg, 80-<90 kg, read-out: AUCtau,ss Geometric Mean): 8.55 µg·h/mL
AUC (100 mg, 80-<90 kg, read-out: AUCtau,ss Mean): 9.66 µg·h/mL
AUC (100 mg, 80-<90 kg, read-out: AUCtau,ss Median): 7.55 µg·h/mL
Cmax (100 mg, 80-<90 kg, read-out: Cmax,ss Geometric Mean): 1.16 µg/mL
Cmax (100 mg, 80-<90 kg, read-out: Cmax,ss Mean): 1.22 µg/mL
Cmax (100 mg, 80-<90 kg, read-out: Cmax,ss Median): 1.2 µg/mL
AUC (100 mg, 90-<100 kg, read-out: AUCtau,ss Geometric Mean): 7.99 µg·h/mL
AUC (100 mg, 90-<100 kg, read-out: AUCtau,ss Mean): 9.01 µg·h/mL
AUC (100 mg, 90-<100 kg, read-out: AUCtau,ss Median): 7.6 µg·h/mL
Cmax (100 mg, 90-<100 kg, read-out: Cmax,ss Geometric Mean): 0.954 µg/mL
Cmax (100 mg, 90-<100 kg, read-out: Cmax,ss Mean): 1.01 µg/mL
Cmax (100 mg, 90-<100 kg, read-out: Cmax,ss Median): 1.06 µg/mL
AUC (100 mg, 100-<110 kg, read-out: AUCtau,ss Geometric Mean): 6.69 µg·h/mL
AUC (100 mg, 100-<110 kg, read-out: AUCtau,ss Mean): 7.43 µg·h/mL
AUC (100 mg, 100-<110 kg, read-out: AUCtau,ss Median): 6.25 µg·h/mL
Cmax (100 mg, 100-<110 kg, read-out: Cmax,ss Geometric Mean): 0.905 µg/mL
Cmax (100 mg, 100-<110 kg, read-out: Cmax,ss Mean): 0.958 µg/mL
Cmax (100 mg, 100-<110 kg, read-out: Cmax,ss Median): 0.966 µg/mL
AUC (100 mg, <80 kg, read-out: AUCtau,ss Geometric Mean): 8.68 µg·h/mL
AUC (100 mg, <80 kg, read-out: AUCtau,ss Mean): 10.8 µg·h/mL
AUC (100 mg, <80 kg, read-out: AUCtau,ss Median): 9.61 µg·h/mL
Cmax (100 mg, <80 kg, read-out: Cmax,ss Geometric Mean): 1.12 µg/mL
Cmax (100 mg, <80 kg, read-out: Cmax,ss Mean): 1.31 µg/mL
Cmax (100 mg, <80 kg, read-out: Cmax,ss Median): 1.37 µg/mL
AUC (100 mg, ≥110 kg, read-out: AUCtau,ss Geometric Mean): 4.33 µg·h/mL
AUC (100 mg, ≥110 kg, read-out: AUCtau,ss Mean): 4.94 µg·h/mL
AUC (100 mg, ≥110 kg, read-out: AUCtau,ss Median): 3.9 µg·h/mL
Cmax (100 mg, ≥110 kg, read-out: Cmax,ss Geometric Mean): 0.575 µg/mL
Cmax (100 mg, ≥110 kg, read-out: Cmax,ss Mean): 0.642 µg/mL
Cmax (100 mg, ≥110 kg, read-out: Cmax,ss Median): 0.647 µg/mL
